Laboratory results: US20220145264A1, “CULTURE MEDIUM FOR MAMMALIAN EXPANDED POTENTIAL STEM CELLS, COMPOSITION, AND METHODS THEREOF” (THE UNIVERSITY OF HONG KONG, priority 2019, published 2022)

Columns and labels:
[1] = system: human ES cell (hESC) lines (H1, H9, M1, M10); test: Culture of human ES cell lines in pEPSCM minus ACTIVIN A (colony formation); type: cell-based; conditions: removing ACTIVIN A (20 ng/ml) from pEPSCM
Description: Human ESCs have been widely used in studying human embryo development in vitro and hold great potential for regenerative medicine. The finding that inhibition of SRC and Tankyrases is sufficient to convert mouse ESCs to mEPSCs and that these two inhibitors are required for the generation of pEPSCs raises the possibility that similar in vitro culture conditions may also work for other mammalian species. To explore this possibility, four established human ES cell (hESC) lines (H1, H9, Man1 or M1, and Man10 or M10 cells) are cultured in pEPSCM and passaged them up to three times. […] Removing ACTIVIN A (20 ng/ml) from pEPSCM led to considerably fewer cell colonies formed from H1 (<1.0%) and M1 (5.0%) ESC cultures, while none from H9 or M10 (Extended Data FIG. 7a), which is consistent with the inherent between-line heterogeneity of human ESCs. With further refinement of the culture conditions (for example, replacing WH-4-023 with another SRC inhibitor A419259 in hEPSCM, see Methods), morphologically homogenous and stable cell lines were established from single-cell sub-cloned H1 (H1-EPSCs) and M1 cells (M1-EPSCs) (FIG. 3a).

[2] = system: Dox dependent porcine iPSCs; test: Screening for the porcine EPSC culture conditions; type: cell-based; conditions: 1.0 μM, irrespective of whether Dox was present
Method: Dox dependent porcine iPSCs were dissociated in 0.25% trypsin/EDTA solution (Gibco, Cat. No. 25500-054) and seeded in 24-well STO feeder plates at a density of 1×10^4 cells per well. The cells were cultured in M15 supplemented with Dox (Sigma, Cat. No. D9891), Vitamin C (Sigma, Cat. No. 49752-100G) and 10 ng/ml bFGF (SCI) for two days before the culture media was switched to medium supplemented with indicated small molecules and cytokines (Supplementary Table 1). M15 and N2B27 media: see above. AlbumMax media: DMEM/F12 (Gibco, Cat. No. 21331-020), 20% AlbumMax II (Gibco, Cat. No. 11021-037), […] Human Insulin (Sigma, Cat. No. 91077C), 2×B27 Supplement, […] IGFII (R&D, Cat. No. 292-G2-250), 1×Glutamine Penicillin-Streptomycin (Thermo Fisher Scientific, Cat. No. 11140-050), 1×NEAA (Thermo Fisher Scientific, Cat. No. 10378-016) and 0.1 mM 2mercaptoethanol (Sigma, Cat. No. M6250). 20% KSR media: DMEM/F-12 (Gibco, Cat. No. 21331-020), 20% KnockOut Serum Replacement (KSR) (Gibco, Cat. No. 10828-028), 1× glutamine penicillin-streptomycin (Thermo Fisher Scientific, Cat. No. 11140-050), 1×NEAA (Thermo Fisher Scientific, Cat. No. 10378-016) and 0.1 mM 2-mercaptoethanol (Sigma, Cat. No. M6250). […]

ACTIVIN A: Human Recombinant ACTIVIN A cytokine
cell colonies formed ([1]; H1 ESC culture): < 1.0% | cell colonies formed ([1]; H9): none | cell colonies formed ([1]; M1 ESC culture): 5.0% | cell colonies formed ([1]; M10): none

O=C(NOC[C@H](O)CO)c1ccc(F)c(F)c1Nc1ccc(I)cc1F [PD0325901]
survival of porcine iPSCs / porcine cells in the screens [2]: deleterious to porcine cells | survival of porcine iPSCs / porcine cells in the screens ([2]; listed as PD-0325901): rapidly lost
